Assay results as given in PMC11871066, “Structure-based discovery of hydrocarbon-stapled paxillin peptides that block FAK scaffolding in cancer” (Nature Communications, 2025).
Bridge positions count the residues as written; N and C are the ends. Square brackets hold non-standard residues; d marks the D form. Peptide text beside a SMILES is read from it. * marks the point of attachment. Myristoyl = CCCCCCCCCCCCCC(=O)*; R8 = C=CCCCCCC[C@@](C)(N)C(=O)O; S5 = C=CCCC[C@](C)(N)C(=O)O

Experiments:
SK-MEL-147 cells [1] = assay: Cellular uptake of TAMRA-labeled peptides; format: in vitro ADME, human; details: TAMRA-tagged, cell line not given
WM88 cells = assay: LDH release assay; format: cell-based, human; details: 100 μM to 200 nM, 45 min, n = 3
Description: (§1) Non-specific membrane disruption was assessed quantitatively by measuring the lactate dehydrogenase (LDH) activity in the medium using the cytoscan-LDH cytotoxicity assay kit (G-Biosciences Inc., St Louis, Mo, USA). SK-MEL-147 and WM88 human melanoma cells were plated in 96-well white-walled plates at 5k cells/well in 90 uL of serum complete DMEM and returned to a 37 °C incubator with 5% CO2 overnight. The cells were then treated in triplicate with 2012, 2020 (negative control), and Gambogic Acid (positive control) at titrating concentrations ranging from 100 μM to 200 nM and allowed to incubate for 45 min in a 37 °C incubator with 5% CO2. About 50 µl of supernatant was transferred from each well to a new flat-bottom 96-well white-walled plate and mixed with 50 µl of recombinant substrate mixture. This reaction was allowed to occur at room temperature for 30 min protected from light. Then, 50 µl of stop solution was added to terminate the reaction. […] Results were reported as 490 nm values […], averaged, three biological replicates were repeated per cell line, and graphs were generated using GraphPad Prism (version 10.3.1), reporting mean LDH activity ± SD.
(§2) LDH release assay preformed in human melanoma
(§3) Acid (pos. control) at titrating concentrations ranging from 100 μ M to 200 nM for 45 minutes. […]

SK-MEL-147 cells [2] = assay: LDH release assay; format: cell-based, human; details: 100 μM to 200 nM, 45 min, n = 3
Description: as §1, §2, §3

cell permeability compared to TAMRA-Alkyne control (SK-MEL-147 cells [1]): approximately threefold higher
SMILES: CCCCCCCCCCCCCC(=O)N[C@@H](CC(N)=O)C(=O)N[C@@H](CC(C)C)C(=O)N[C@]1(C)CCCCCCC=CCCC[C@@](C)(C(=O)N[C@@H](CCC(=O)O)C(=O)N[C@@H](CCC(=O)O)C(=O)N[C@@H](CC(N)=O)C(N)=O)NC(=O)[C@H](CC(C)C)NC(=O)[C@H](CC(C)C)NC(=O)[C@H](CCCNC(=N)N)NC(=O)[C@H](CC(=O)O)NC(=O)[C@H](CCC(=O)O)NC(=O)[C@H](CCC(=O)O)NC1=O [compound 2020] (Myristoyl-NL[R8]EEDRLL[S5]EEN-NH2; staple 3-10)
LDH release, plasma membrane damage (WM88 cells): do not result in damage to plasma membrane
LDH release, plasma membrane damage (SK-MEL-147 cells [2]): do not result in damage to plasma membrane
